Results from US5972953A, “Brain cell protective agent” (priority 1993, dated 1999).

What was measured:
[1] = test system: nerve cells in the CAl region of the hippocampus; assay: Protective action from delayed neuronal death (bilateral carotid ligation ischemia, residual hippocampal nerve cells); assay type: in vivo, mongolian jerbils; settings: for inhibition of defluxion of brain nerve cells caused by ischemia: conclusion from Table 2
Description: Those compounds that provide protection from and suppress delayed neuronal death described in Example 18 are considered to be promising as preventive and therapeutic agents for ischemic brain disorders, brain nerve cell disorders and dementia, which are problems that the present invention is attempting to solve. The pharmacological activity of the compounds of the present invention was evaluated in the manner below using jerbils for the animal model.
A midline incision was made in mongolian having body weights of 50-70 g under ether anesthesia. Blood flow through the carotid arteries on both sides was interrupted to create an ischemic state by ligating the vessels for 5 minutes. The test compound was administered subcutaneously either 30 minutes or 1 hour prior to ligation ischemia, and the rectal temperature of the animals was controlled to 37±2° C. using a heating pad or heater starting 5 minutes before to 30 minutes after ligation ischemia. 1 week after ligation, 4% neutral buffered formalin was perfused from the heart throughout the body followed by extraction of the brain. After post-fixing the extracted brain in the same solution, the tissue was prepared into sections after embedding in paraffin. The sections were stained with hematoxylin and eosin, and the number of nerve cells in the CAl region of the hippocampus over a width of 1 mm to the left and right was counted. The total number of nerve cells on the right and left sides was then used for evaluation.

[2] = test system: cultured nerve cells (cerebral cortex); assay: cells; assay type: cell-based, Wistar rat; settings: Rattus norvegicus, Cerebral cortex neuron; 10 mM glutamate, 24 hours at 37° C., LDH leakage; read-out: ED50 (the source's name)

Compound	inhibition of defluxion of brain nerve cells caused by ischemia [1]	EC50 [2]	No. of Residual Nerve Cells ([1]; 3 mg/kg s.c., 30 minutes before ischemia, 1 week after 5 min ligation)
Cc1cccc(/C=C/C(=O)N(C)[C@@H]2CC[C@@]3(O)[C@H]4Cc5ccc(O)c6c5[C@@]3(CCN4CC3CC3)[C@H]2O6)c1 [Compound 46, 17-cyclopropylmethyl-3,14β-dihydroxy-4,5α-epoxy-6β-(N-methyl-3-methylcinnamamido) morphinan]	significantly inhibited defluxion of brain nerve cells caused by ischemia	4420 nM	
CN(C(=O)/C=C/c1cccc([N+](=O)[O-])c1)[C@@H]1CC[C@@]2(O)[C@H]3Cc4ccc(O)c5c4[C@@]2(CCN3CC2CC2)[C@H]1O5 [Compound 78, 17-cyclopropylmethyl-3,14β-dihydroxy-4,5α-epoxy-6β-(N-methyl-3-nitrocinnamamido)morphinan]	significantly inhibited defluxion of brain nerve cells caused by ischemia		
CN(C(=O)/C=C/c1cccc(C(F)(F)F)c1)[C@@H]1CC[C@@]2(O)[C@H]3Cc4ccc(O)c5c4[C@@]2(CCN3CC2CC2)[C@H]1O5 [Compound 42, 17-cyclopropylmethyl-3,14β-dihydroxy-4,5α-epoxy-6β-(N-methyl-3-trifluoromethylcinnamamido)morphinan]	significantly inhibited defluxion of brain nerve cells caused by ischemia	1800 nM	
CN(C(=O)CCCCCc1ccccc1)[C@H]1CC[C@@]2(O)[C@H]3Cc4ccc(O)c5c4[C@@]2(CCN3CC2CC2)[C@H]1O5 [Compound 34, 17-cyclopropylmethyl-3,14β-dihydroxy-4,5α-epoxy-6α-(N-methyl-6-phenylhexanoamido)morphinan]	significantly inhibited defluxion of brain nerve cells caused by ischemia		
CC(C)CN(C(=O)Cc1ccc(Cl)c(Cl)c1)[C@H]1CC[C@@]2(O)[C@H]3Cc4ccc(O)c5c4[C@@]2(CCN3CC2CC2)[C@H]1O5 [Compound 35, 17-cyclopropylmethyl-3,14β-dihydroxy-4,5α-epoxy-6α-(N-isobutyl-3,4-dichlorophenylacetoamido)morphinan]	significantly inhibited defluxion of brain nerve cells caused by ischemia		203.1 ± 40.1
O=C(CCCCCc1ccccc1)N(CC1CCCCC1)[C@@H]1CC[C@@]2(O)[C@H]3Cc4ccc(O)c5c4[C@@]2(CCN3CC2CC2)[C@H]1O5 [Compound 71, 17-cyclopropylmethyl-3,14β-dihydroxy-4,5α-epoxy-6β-(N-cyclohexylmethyl-6-phenylhexanoamido)morphinan]		100 nM	
